# Literature values, collected in patent publication US20050244821A1, “Method of identification and quantification of biological molecules and apparatus therefore” (priority 2000, published 2005).
# Target: D2.3 antibody
# Conditions: hapten and antibody free in solution; competitive ELISA, further by a fluorescence assay; read-out: affinity constant
substance,measurement,value
p-nitrobenzyl phosphonate N-glycylglutatarate [hapten 23.7],Kd,4 nM
